The target of the test is human sodium ion channel 1.7 (hNav1.7) (Homo sapiens, UniProt Q15858). The experiment in a line: Blocking effect against sodium ion channel Nav1.7, IonFlux16 auto patch clamp in hNav1.7 HEK293 cells. It is filed as cell-based. The note with it: hNav1.7 HEK293 cells; inhibition of peak current after 50 seconds treatment; eight concentrations; read-out: IC50.

Some results are limits rather than exact numbers.

Sequence of human sodium ion channel 1.7 (hNav1.7) (Q15858 whole entry): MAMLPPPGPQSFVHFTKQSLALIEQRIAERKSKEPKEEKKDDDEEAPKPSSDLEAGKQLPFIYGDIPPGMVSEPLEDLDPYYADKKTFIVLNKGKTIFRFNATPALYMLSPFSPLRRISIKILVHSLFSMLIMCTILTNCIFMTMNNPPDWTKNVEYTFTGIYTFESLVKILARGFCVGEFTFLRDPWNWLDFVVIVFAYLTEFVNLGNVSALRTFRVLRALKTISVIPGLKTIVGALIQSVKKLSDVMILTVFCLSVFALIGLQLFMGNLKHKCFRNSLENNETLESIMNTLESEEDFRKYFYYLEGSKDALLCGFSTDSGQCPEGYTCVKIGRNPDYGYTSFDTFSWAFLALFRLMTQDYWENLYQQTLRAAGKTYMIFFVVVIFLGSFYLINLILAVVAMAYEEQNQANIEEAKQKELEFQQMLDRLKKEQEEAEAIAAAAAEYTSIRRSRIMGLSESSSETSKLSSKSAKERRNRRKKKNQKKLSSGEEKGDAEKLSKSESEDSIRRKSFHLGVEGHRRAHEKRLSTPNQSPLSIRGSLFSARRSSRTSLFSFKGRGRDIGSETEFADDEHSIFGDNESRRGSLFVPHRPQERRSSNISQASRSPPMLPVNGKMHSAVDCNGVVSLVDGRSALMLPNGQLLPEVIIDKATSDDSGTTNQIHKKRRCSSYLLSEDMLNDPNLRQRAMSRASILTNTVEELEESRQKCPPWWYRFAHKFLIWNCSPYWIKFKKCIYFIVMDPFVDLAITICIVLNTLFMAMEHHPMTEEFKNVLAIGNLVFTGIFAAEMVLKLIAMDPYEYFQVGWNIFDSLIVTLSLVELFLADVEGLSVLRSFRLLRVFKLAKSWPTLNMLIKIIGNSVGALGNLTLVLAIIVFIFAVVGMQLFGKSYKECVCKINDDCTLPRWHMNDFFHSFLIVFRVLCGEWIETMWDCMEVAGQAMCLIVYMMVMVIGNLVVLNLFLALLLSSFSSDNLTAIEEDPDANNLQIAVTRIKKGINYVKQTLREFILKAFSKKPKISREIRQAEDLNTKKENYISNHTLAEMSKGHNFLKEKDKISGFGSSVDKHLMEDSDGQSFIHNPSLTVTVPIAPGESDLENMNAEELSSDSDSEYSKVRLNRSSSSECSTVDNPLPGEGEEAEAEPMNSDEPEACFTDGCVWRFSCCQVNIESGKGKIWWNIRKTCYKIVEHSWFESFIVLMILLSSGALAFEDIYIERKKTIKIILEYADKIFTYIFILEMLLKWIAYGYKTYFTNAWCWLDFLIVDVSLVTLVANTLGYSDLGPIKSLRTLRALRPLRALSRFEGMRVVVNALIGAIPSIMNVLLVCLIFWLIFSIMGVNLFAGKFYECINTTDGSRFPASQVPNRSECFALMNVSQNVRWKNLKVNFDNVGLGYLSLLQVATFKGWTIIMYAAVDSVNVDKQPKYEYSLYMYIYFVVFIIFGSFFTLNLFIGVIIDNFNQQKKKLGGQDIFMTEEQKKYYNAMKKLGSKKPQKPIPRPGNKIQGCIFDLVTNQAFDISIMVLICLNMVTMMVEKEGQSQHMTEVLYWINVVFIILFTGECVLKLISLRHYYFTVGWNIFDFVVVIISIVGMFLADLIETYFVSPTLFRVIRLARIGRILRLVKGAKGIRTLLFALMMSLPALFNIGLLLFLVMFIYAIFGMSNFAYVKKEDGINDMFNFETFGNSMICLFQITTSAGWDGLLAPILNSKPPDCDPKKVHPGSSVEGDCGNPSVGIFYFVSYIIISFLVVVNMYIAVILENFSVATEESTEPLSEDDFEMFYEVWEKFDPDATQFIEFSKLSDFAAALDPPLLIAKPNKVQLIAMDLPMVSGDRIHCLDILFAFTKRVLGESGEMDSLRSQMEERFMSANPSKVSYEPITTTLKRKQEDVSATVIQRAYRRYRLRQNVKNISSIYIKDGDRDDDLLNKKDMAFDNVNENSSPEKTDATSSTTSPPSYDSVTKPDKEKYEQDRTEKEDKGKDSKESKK

`CS(=O)(=O)NC(=O)c1ccc(-n2nc(-c3cccc(C#N)c3)c3cc(Cl)ccc32)c(C#N)c1` [Example 95, 4-(5-chloro-3-(3-cyanophenyl)-1H-indazol-1-yl)-3-cyano-N-(methylsulfonyl)benzamide]: the IC50 was > 10000 nM. In the case of `CS(=O)(=O)NC(=O)c1cc(Cl)c(-n2nc(-c3cccc(C(F)(F)F)c3)c3cc(Cl)ccc32)cc1F` [Example 64, 5-chloro-4-(5-chloro-3-(3-(trifluoromethyl)phenyl)-1H-indazol-1-yl)-2-fluoro-N-(methylsulfonyl)benzamide], the IC50 came to 94 nM. The same measure for `CS(=O)(=O)NC(=O)c1cc(Cl)c(-n2nc(/C=C/c3ccccc3F)c3cc(Cl)ccc32)cc1F` [Example 135, (E)-5-chloro-4-(5-chloro-3-(2-fluorostyryl)-1H-indazol-1-yl)-2-fluoro-N-(methylsulfonyl)benzamide]: 370 nM; for `CS(=O)(=O)NC(=O)c1cc(Cl)c(-n2nc(Cl)c3cc(-c4ccc(Cl)cc4)ccc32)cc1F` [Example 255, 5-chloro-4-(3-chloro-5-(4-chlorophenyl)-1H-indazol-1-yl)-2-fluoro-N-(methylsulfonyl)benzamide]: 830 nM. `CS(=O)(=O)NC(=O)c1cc(Cl)c(-n2nc(-c3ccc(Cl)cc3F)c3cc(F)ccc32)cc1F` [Example 142, 5-chloro-4-(3-(4-chloro-2-fluorophenyl)-5-fluoro-1H-indazol-1-yl)-2-fluoro-N-(methylsulfonyl)benzamide]: the half-inhibitory concentration (IC50) turned out to be 30 nM.

Take `Cc1cc(Cl)ccc1-c1ccc2c(c1)c(Cl)nn2-c1cc(F)c(C(=O)NS(C)(=O)=O)cc1Cl` [Example 253, 5-chloro-4-(3-chloro-5-(4-chloro-2-methylphenyl)-1H-indazol-1-yl)-2-fluoro-N-(methylsulfonyl)benzamide]: the IC50 was 480 nM.

As to `CS(=O)(=O)NC(=O)c1cc(Cl)c(-n2nc(-c3cccc(C#N)c3)c3cc(F)ccc32)cc1F` [Example 166, 5-chloro-4-(3-(3-cyanophenyl)-5-fluoro-1H-indazol-1-yl)-2-fluoro-N-(methylsulfonyl)benzamide], the IC50 was determined as 228 nM.

On to `CS(=O)(=O)NC(=O)c1cc(Cl)c(-n2nc(Cl)c3cc(-c4cccnc4F)ccc32)cc1F` [Example 244, 5-chloro-4-(3-chloro-5-(2-fluoropyridin-3-yl)-1H-indazol-1-yl)-2-fluoro-N-(methylsulfonyl)benzamide], for which the IC50 worked out at 2320 nM. Turning to `CS(=O)(=O)NC(=O)c1ccc(-n2nc(Cl)c3cc(OCc4ccccc4)ccc32)c(Cl)c1` [Example 44, 4-(5-(benzyloxy)-3-chloro-1H-indazol-1-yl)-3-chloro-N-(methylsulfonyl)benzamide], the IC50 turned out to be 166 nM. On to `Cc1cnc(NC(=O)c2cc(Cl)c(-n3nc(-c4ccc(Cl)cc4F)c4cc(Cl)ccc43)cc2F)s1` [Example 295, 5-chloro-4-(5-chloro-3-(4-chloro-2-fluorophenyl)-1H-indazol-1-yl)-2-fluoro-N-(5-methylthiazol-2-yl)benzamide], for which the 50% inhibitory concentration (IC50) was > 10000 nM.

Regarding `O=S(=O)(Nc1cscn1)c1cc(F)c(-n2nc(Cl)c3cc(C(F)(F)F)ccc32)cc1F` [Example 279, 4-(3-chloro-5-(trifluoromethyl)-1H-indazol-1-yl)-2,5-difluoro-N-(thiazol-4-yl)benzenesulfonamide], the IC50 is > 10000 nM. For the molecule `Cn1cc(-c2nn(-c3cc(F)c(C(=O)NS(C)(=O)=O)cc3Cl)c3ccc(Cl)cc23)cn1` [Example 88, 5-chloro-4-(5-chloro-3-(1-methyl-1H-pyrazol-4-yl)-1H-indazol-1-yl)-2-fluoro-N-(methylsulfonyl)benzamide], the IC50 is > 10000 nM.

As for `CS(=O)(=O)NC(=O)c1cc(Cl)c(-n2nc(Cl)c3cc(-c4ccc(F)nc4)ccc32)cc1F` [Example 245, 5-chloro-4-(3-chloro-5-(6-fluoropyridin-3-yl)-1H-indazol-1-yl)-2-fluoro-N-(methylsulfonyl)benzamide], the 50% inhibitory concentration (IC50) was 1670 nM.

With `Cc1nn(-c2cc(F)c(C(=O)NS(C)(=O)=O)cc2Cl)c2ccc(OCc3ccccc3)cc12` [Example 30, 4-(5-(benzyloxy)-3-methyl-1H-indazol-1-yl)-5-chloro-2-fluoro-N-(methylsulfonyl)benzamide], the 50% inhibitory concentration (IC50) came to 247 nM. `CS(=O)(=O)NC(=O)c1cc(Cl)c(-n2cc(-c3cccc(F)c3)c3cccnc32)cc1F` [Example 214, 5-chloro-2-fluoro-4-(3-(3-fluorophenyl)-1H-pyrrolo[2,3-b]pyridin-1-yl)-N-(methylsulfonyl)benzamide]: the IC50 was 340 nM. Under `CS(=O)(=O)NC(=O)c1cc(Cl)c(-n2nc(Cl)c3cc(-c4cccnc4)ccc32)cc1F` [Example 231, 5-chloro-4-(3-chloro-5-(pyridin-3-yl)-1H-indazol-1-yl)-2-fluoro-N-(methylsulfonyl)benzamide] stands 3000 to 10000 nM; under `COc1ccccc1-c1nn(-c2ccc(C(=O)NS(C)(=O)=O)cc2F)c2ccc(Cl)cc12` [Example 117, 4-(5-chloro-3-(2-methoxyphenyl)-1H-indazol-1-yl)-3-fluoro-N-(methylsulfonyl)benzamide], 640 nM. As to `COc1cccc(-c2nn(-c3cc(F)c(C(=O)NS(C)(=O)=O)cc3Cl)c3ccc(F)cc23)c1` [Example 151, 5-chloro-2-fluoro-4-(5-fluoro-3-(3-methoxyphenyl)-1H-indazol-1-yl)-N-(methylsulfonyl)benzamide], the IC50 stood at 80 nM. In the case of `CS(=O)(=O)NC(=O)c1cc(Cl)c(-n2nc(-c3cccc(C(F)(F)F)c3)c3ccccc32)cc1F` [Example 172, 5-chloro-2-fluoro-N-(methylsulfonyl)-4-(3-(3-(trifluoromethyl)phenyl)-1H-indazol-1-yl)benzamide], the concentration for half-maximal inhibition (IC50) was found to be 140 nM. Under `CS(=O)(=O)NC(=O)c1cc(Cl)c(-n2cc(-c3cc(F)cc(Cl)c3)c3cccnc32)cc1F` [Example 220, 5-chloro-4-(3-(3-chloro-5-fluorophenyl)-1H-pyrrolo[2,3-b]pyridin-1-yl)-2-fluoro-N-(methylsulfonyl)benzamide] stands 540 nM; under `CS(=O)(=O)NC(=O)c1cc(Cl)c(-n2cc(Cl)c3c(OCc4ccccc4)cccc32)cc1F` [Example 270, 4-(4-(benzyloxy)-3-chloro-1H-indol-1-yl)-5-chloro-2-fluoro-N-(methylsulfonyl)benzamide], 187 nM; under `CS(=O)(=O)NC(=O)c1cc(Cl)c(-n2nc(-c3cc(F)ccc3F)c3cc(F)ccc32)cc1F` [Example 160, 5-chloro-4-(3-(2,5-difluorophenyl)-5-fluoro-1H-indazol-1-yl)-2-fluoro-N-(methylsulfonyl)benzamide], 210 nM.

For the molecule `CS(=O)(=O)NC(=O)c1cc(Cl)c(-n2ncc3c(Cl)c(OCc4ccccc4)ccc32)cc1F` [Example 29, 4-(5-(benzyloxy)-4-chloro-1H-indazol-1-yl)-5-chloro-2-fluoro-N-(methylsulfonyl)benzamide], the 50% inhibitory concentration (IC50) amounted to 786 nM. The same measure for `CS(=O)(=O)NC(=O)c1cc(Cl)c(-n2nc(Cl)c3cc(OCc4ccc5ccccc5c4)ccc32)cc1F` [Example 35, 5-chloro-4-(3-chloro-5-(naphthalen-2-ylmethoxy)-1H-indazol-1-yl)-2-fluoro-N-(methylsulfonyl)benzamide]: 76 nM; for `CS(=O)(=O)NC(=O)c1cc(Cl)c(-n2cc(-c3cccc(C(F)(F)F)c3)c3cc(Cl)cnc32)cc1F` [Example 192, 5-chloro-4-(5-chloro-3-(3-(trifluoromethyl)phenyl)-1H-pyrrolo[2,3-b]pyridin-1-yl)-2-fluoro-N-(methylsulfonyl)benzamide]: 270 nM. Take `CS(=O)(=O)NC(=O)c1cc(Cl)c(-n2ncc3cc(N)ccc32)cc1F` [Example 13, 4-(5-amino-1H-indazol-1-yl)-5-chloro-2-fluoro-N-(methylsulfonyl)benzamide]: the IC50 is > 10000 nM. The same measure for `CS(=O)(=O)NC(=O)c1cc(Cl)c(-n2cc(-c3ccc(Cl)nc3)c3cc(Cl)ccc32)cc1F` [Example 273, 5-chloro-4-(5-chloro-3-(6-chloropyridin-3-yl)-1H-indol-1-yl)-2-fluoro-N-(methylsulfonyl)benzamide]: 180 nM.

On to `CS(=O)(=O)NC(=O)c1cc(Cl)c(-n2nc(Cl)c3cc(-c4ccc(F)nc4F)ccc32)cc1F` [Example 246, 5-chloro-4-(3-chloro-5-(2,6-difluoropyridin-3-yl)-1H-indazol-1-yl)-2-fluoro-N-(methylsulfonyl)benzamide], for which the half-maximal inhibitory concentration (IC50) came out at 1050 nM.

For the molecule `Cn1nccc1-c1ccc2c(cnn2-c2cc(F)c(S(=O)(=O)Nc3cscn3)cc2Cl)c1` [Example 285, 5-chloro-2-fluoro-4-(5-(1-methyl-1H-pyrazol-5-yl)-1H-indazol-1-yl)-N-(thiazol-4-yl)benzenesulfonamide], the IC50 was > 10000 nM. Take `CS(=O)(=O)NC(=O)c1cc(Cl)c(-n2nc(-c3cccc(F)c3)c3ccccc32)cc1F` [Example 171, 5-chloro-2-fluoro-4-(3-(3-fluorophenyl)-1H-indazol-1-yl)-N-(methylsulfonyl)benzamide]: the IC50 was determined as 190 nM. Under `CS(=O)(=O)NC(=O)c1cc(F)c(-n2nc(-c3ccc(F)cc3)c3cc(Cl)ccc32)cc1Cl` [Example 112, 2-chloro-4-(5-chloro-3-(4-fluorophenyl)-1H-indazol-1-yl)-5-fluoro-N-(methylsulfonyl)benzamide] stands 789 nM; under `CS(=O)(=O)NC(=O)c1cc(Cl)c(-n2nc(-c3ccc(Cl)cc3)c3cc(F)ccc32)cc1F` [Example 154, 5-chloro-4-(3-(4-chlorophenyl)-5-fluoro-1H-indazol-1-yl)-2-fluoro-N-(methylsulfonyl)benzamide], 60 nM. Under `Cc1cc(F)ccc1-c1cn(-c2cc(F)c(C(=O)NS(C)(=O)=O)cc2Cl)c2ncc(F)cc12` [Example 212, 5-chloro-2-fluoro-4-(5-fluoro-3-(4-fluoro-2-methylphenyl)-1H-pyrrolo[2,3-b]pyridin-1-yl)-N-(methylsulfonyl)benzamide] stands 180 nM. Turning to `CS(=O)(=O)NC(=O)c1cc(Cl)c(-n2nc(-c3ccc(OC(F)(F)F)cc3)c3cc(Cl)ccc32)cc1F` [Example 83, 5-chloro-4-(5-chloro-3-(4-(trifluoromethoxy)phenyl)-1H-indazol-1-yl)-2-fluoro-N-(methylsulfonyl)benzamide], the IC50 was 80 nM.

Source of the values: patent US10590078B2, “Sodium channel blockers” (Daewoong Pharmaceutical Co., Ltd., priority 2015, dated 2020).
